# According to patent US6372209B1, “Vaginal lactobacillus medicant” (Gyne Logix, Inc., priority 1997, dated 2002):
# How the values were obtained:
# [1] = Stability of viability: room temperature and refrigerated storage (plate count, MRS agar); format: physicochemical
# Experimental: (1.5) Stability of viability: Samples of each evaluated strain were retained for shelf-life studies at room temperature and refrigerated storage. At selected time intervals, samples were tested for the number of colony-forming-units using the Plate Count method with MRS agar.
# Strain CTV-05 was tested in a gelatin capsule suppository during storage at 55° C., 45° C., 35° C. and at room and refrigeration temperatures. […] Between the fourth and ninth weeks counts dropped to 9.8×10^7 per suppository and have remained at 10^7 for 25 months. […]
# [2] = Accelerated shelf-life of the air-dried suppository at 35, 45 and 55° C.; format: physicochemical; conditions: for loss of viability: over about 2.3 days
# Experimental: Strain CTV-05 was tested in a gelatin capsule suppository during storage at 55° C., 45° C., 35° C. and at room and refrigeration temperatures. […] Between the fourth and ninth weeks counts dropped to 9.8×10^7 per suppository and have remained at 10^7 for 25 months.
# At 35° C., the product lost less than 1 log of viability over about 2.3 days. At 45° C., the product lost about 2 logs of viability over about 2.3 days. At 55° C., the product lost viability rapidly within 0.5 days.
# [3] = Cell to preservation matrix ratio: viability counts pre- and post-dry; format: physicochemical; conditions: 30 microliter aliquots
# Experimental: Experiments were conducted to determine the preservative capacity of the suspending medium by addition of different amounts of cells of strain CTV-05 per volume of medium. The Lactobacilli were grown anaerobically on 2 inch squares on MRS agar plates. A 2-inch square of agar is the equivalent of 10 ml of broth. The anticipated yield per plate was 2×10^9 CFUs. Inoculated matrix was preserved in aliquots of 30 microliters.
# [4] = test system: normal, healthy women; test: Open study: vaginal colonization of healthy women by suppository; format: in vivo, human
# Description: In this open study, a Lactobacillus suppository containing approximately 10^9 viable, H2O2-producing Lactobacillus crispatus CTV-05 was used by 9 women twice daily for three days. All 9 women were free of genital infection at enrollment, and 8 of the 9 women had endogenous Lactobacilli at enrollment.
# Since many women are colonized vaginally and rectally by Lactobacilli, the technique, Repetitive Sequence Polymerase Chain Reaction (Rep PCR), was used to “fingerprint” the suppository strain of L. crispatus and thereby distinguish the suppository strain from endogenous strains of Lactobacilli.
# [5] = test system: women who had bacterial vaginosis; test: Suppository as treatment for bacterial vaginosis; format: in vivo, human
# Description: In this study, 13 women who had bacterial vaginosis were given Lactobacillus crispatus CTV-05 suppositories twice daily for seven days. The purpose of this study was to evaluate whether Lactobacillus suppositories could be used as a treatment for bacterial vaginosis. Only 1 of 10 women who returned for follow-up was cured of bacterial vaginosis at the one week follow-up visit.
# [6] = test system: Candida albicans ATCC 14053 (human blood isolate); test: Agar overlay zone of inhibition of yeast growth; format: cell-based
# Experimental: (§1) MRS agar was allowed to harden at a 5 mm slant. Lactobacillus crispatus CTV-05 was streaked across the diameter of the plate and was grown for 24, 48 or 72 hours under both anaerobic and ambient atmospheres. Control strains of Lactobacillus jensenii CTV-01, Lactobacillus crispatus CTV-02, Lactobacillus crispatus CTV-03, and Lactobacillus crispatus CTV-04 were grown in the same way. The plates were overlayed with YM agar with 10 mM CNNaS (sodium thiocyanate, previously reported to be an inhibitor of yeast growth) or without CNNaS. The agar overlays were inoculated with one of two strains of Candida albicans ATCC 60193 (cervical isolate) or Candida albicans ATCC 14053 (human blood isolate). Zones of inhibition were measured. […] Therefore, Lactobacillus crispatus CTV-05 inhibits yeast growth in vitro.
# [7] = test system: Candida albicans ATCC 60193 (cervical isolate); test: Agar overlay zone of inhibition of yeast growth; format: cell-based
# Experimental: as §1
# [8] = 4 plates/5 ml matrix, 24 hr. Growth Period
# [9] = 4 plates/5 ml matrix, 48 hr. Growth Period
# [10] = 6 plates/5 ml matrix, 24 hr. Growth Period
# [11] = 6 plates/5 ml matrix, 48 hr. Growth Period
# [12] = 8 plates/5 ml matrix, 24 hr. Growth Period
# [13] = 8 plates/5 ml matrix, 48 hr. Growth Period
# [14] = 10 plates/5 ml matrix, 24 hr. Growth Period
# [15] = 10 plates/5 ml matrix, 48 hr. Growth Period
# [16] = Lactobacillus grown anaerobically for 24, 48 or 72 hours
# [17] = Lactobacillus grown under ambient atmosphere, with or without CNNaS
substance,measurement,setting,value
Lactobacillus crispatus CTV-05,CFUs per Suppository,"[1]; Refrigerated (2-8° C.), 1 month",5.20E+08 CFUs per Suppository
same,CFUs per Suppository,"[1]; Refrigerated (2-8° C.), 2 months",2.20E+08 CFUs per Suppository
same,CFUs per Suppository,"[1]; Refrigerated (2-8° C.), 3 months",2.30E+08 CFUs per Suppository
same,CFUs per Suppository,"[1]; Refrigerated (2-8° C.), 5 months",2.80E+08 CFUs per Suppository
same,CFUs per Suppository,"[1]; Refrigerated (2-8° C.), 6 months",1.70E+08 CFUs per Suppository
same,CFUs per Suppository,"[1]; Refrigerated (2-8° C.), 7 months",2.60E+08 CFUs per Suppository
same,CFUs per Suppository,"[1]; Refrigerated (2-8° C.), 9 months",3.10E+08 CFUs per Suppository
same,CFUs per Suppository,"[1]; Refrigerated (2-8° C.), 11 months",2.50E+08 CFUs per Suppository
same,CFUs per Suppository,"[1]; Refrigerated (2-8° C.), 15 months",9.20E+07 CFUs per Suppository
same,CFUs per Suppository,"[1]; Refrigerated (2-8° C.), 18 months",1.50E+07 CFUs per Suppository
same,CFUs per Suppository,"[1]; Refrigerated (2-8° C.), 25 months",5.00E+08 CFUs per Suppository
same,CFUs per Suppository,"[1]; Room Temperature (25° C. ± 5° C.), 1 month",1.30E+08 CFUs per Suppository
same,CFUs per Suppository,"[1]; Room Temperature (25° C. ± 5° C.), 1 week",3.80E+08 CFUs per Suppository
same,CFUs per Suppository,"[1]; Room Temperature (25° C. ± 5° C.), 2 months",9.80E+07 CFUs per Suppository
same,CFUs per Suppository,"[1]; Room Temperature (25° C. ± 5° C.), 2 weeks",3.20E+08 CFUs per Suppository
same,CFUs per Suppository,"[1]; Room Temperature (25° C. ± 5° C.), 3 months",1.83E+07 CFUs per Suppository
same,CFUs per Suppository,"[1]; Room Temperature (25° C. ± 5° C.), 3 weeks",3.05E+08 CFUs per Suppository
same,CFUs per Suppository,"[1]; Room Temperature (25° C. ± 5° C.), 4 months",3.25E+07 CFUs per Suppository
same,CFUs per Suppository,"[1]; Room Temperature (25° C. ± 5° C.), 5 months",3.80E+07 CFUs per Suppository
same,CFUs per Suppository,"[1]; Room Temperature (25° C. ± 5° C.), 6 months",1.70E+07 CFUs per Suppository
same,CFUs per Suppository,"[1]; Room Temperature (25° C. ± 5° C.), 7 months",1.60E+07 CFUs per Suppository
same,CFUs per Suppository,"[1]; Room Temperature (25° C. ± 5° C.), 9 months",4.70E+07 CFUs per Suppository
same,CFUs per Suppository,"[1]; Room Temperature (25° C. ± 5° C.), 11 months",2.80E+07 CFUs per Suppository
same,CFUs per Suppository,"[1]; Room Temperature (25° C. ± 5° C.), 15 months",2.20E+06 CFUs per Suppository
same,CFUs per Suppository,"[1]; Room Temperature (25° C. ± 5° C.), 18 months",4.70E+06 CFUs per Suppository
same,CFUs per Suppository,"[1]; Room Temperature (25° C. ± 5° C.), 25 months",1.60E+07 CFUs per Suppository
same,"colony counts, stable level","[1]; refrigerated product, for 5 months",10^8 per suppository
same,colony counts after drop,"[1]; room temperature, between the fourth and ninth weeks",9.8×10^7 per suppository
same,"colony counts, stable level","[1]; room temperature, for 4 weeks",10^8 per suppository
same,"colony counts, level maintained","[1]; room temperature, for 25 months",10^7
same,CFU value at which product remained stable after drop from 10^8 at 2 months,"[1]; stored at room temperature (25° C. +5° C.), for 25 months",10^7 CFU
same,CFU value at which product was stable,"[1]; stored refrigerated (2-8° C.), for 25 months",10^8 CFU
same,loss of viability,[2]; 35° C.,less than 1 log
same,loss of viability,[2]; 45° C.,about 2 logs
same,time within which viability was rapidly lost,[2]; 55° C.,≤ 0.5 days
same,"Actual Yields, Post-dry",[3]; [8],1.1 × 10^7 CFUs
same,"Actual Yields, Pre-dry",[3]; [8],7.9 × 10^7 CFUs
same,"Actual Yields, Post-dry",[3]; [9],6.1 × 10^8 CFUs
same,"Actual Yields, Pre-dry",[3]; [9],6.0 × 10^8 CFUs
same,"Actual Yields, Post-dry",[3]; [10],2.1 × 10^7 CFUs
same,"Actual Yields, Pre-dry",[3]; [10],1.9 × 10^8 CFUs
same,"Actual Yields, Post-dry",[3]; [11],3.0 × 10^8 CFUs
same,"Actual Yields, Pre-dry",[3]; [11],7.8 × 10^8 CFUs
same,"Actual Yields, Post-dry",[3]; [12],3.6 × 10^7 CFUs
same,"Actual Yields, Pre-dry",[3]; [12],6.9 × 10^7 CFUs
same,"Actual Yields, Post-dry",[3]; [13],4.3 × 10^8 CFUs
same,"Actual Yields, Pre-dry",[3]; [13],9.8 × 10^8 CFUs
same,"Actual Yields, Post-dry",[3]; [14],4.0 × 10^7 CFUs
same,"Actual Yields, Pre-dry",[3]; [14],6.7 × 10^7 CFUs
same,"Actual Yields, Post-dry",[3]; [15],4.1 × 10^8 CFUs
same,"Actual Yields, Pre-dry",[3]; [15],1.5 × 10^8 CFUs
same,"inflammation, microscopically (white blood cells on vaginal smear)",[4]; 9 women,None of the women had evidence of inflammation
same,side effects,[4]; 9 women,none complained of side effects
same,women colonized by the suppository strain,"[4]; 9 women, approximately 10^9 viable cells twice daily for three days, 2-3 days after last capsule",all of the women were colonized
same,women remaining colonized,"[4]; 9 women, at 1 month",8 of 9
same,"vaginal colonization, Patient 103",[4]; four weeks later,still colonized with CTV-05
same,"vaginal colonization, Patient 102",[4]; one month visit,still colonized by L. crispatus CTV-05
same,"vaginal colonization, Patient 103",[4]; one week after use twice daily for 3 days,colonized by CTV-05 as well as by another strain of Lactobacilli
same,"vaginal colonization, Patient 102",[4]; one week visit after use of the suppository,"colonized by three strains of Lactobacilli, which included (1) the suppository strain"
same,"vaginal colonization, Patient 102",[4]; one year after enrollment,colonized exclusively by the suppository strain
same,women successfully colonized by the suppository strain,"[5]; suppositories twice daily for seven days, follow-up",7 of the 10
same,women cured of bacterial vaginosis,"[5]; suppositories twice daily for seven days, one week follow-up visit",1 of 10
same,side-effects,[5]; twice daily for seven days,None of the women experienced any side-effects
same,visual or microscopic evidence of inflammation,[5]; twice daily for seven days,none had either visual or microscopic evidence of inflammation
same,inhibition of Candida growth,[6]; [16],effectively inhibited growth
same,inhibition of Candida growth,[6]; [17],unable to inhibit
same,inhibition of Candida growth,[7]; [16],effectively inhibited growth
same,inhibition of Candida growth,[7]; [17],unable to inhibit
same,Zone of Inhibition (in millimeters),[7]; Organism Growth Time Period 48 hours,70 to 0 mm
same,Zone of Inhibition (in millimeters),[7]; Organism Growth Time Period 72 hours,70 to 0 mm
